2 compounds from article PMC4659538, “Human GAPDH Is a Target of Aspirin’s Primary Metabolite Salicylic Acid and Its Derivatives” (PLoS ONE, 2015) can be followed below.

The target in experiment [1] is T1, human Glyceraldehyde 3-Phosphate Dehydrogenase (HsGAPDH) (Homo sapiens, UniProt P04406).
T1 construct: gene GAPDH; N-terminally His-tagged human GAPDH, expressed in E. coli
The experiment can be described thus: UV photoaffinity crosslinking ([…]) with anti-SA immunoblot. Type of experiment: binding. A general note: In western blotting, separated proteins are transferred to a membrane and probed.

The target of experiment [2] is T1, human Glyceraldehyde 3-Phosphate Dehydrogenase (HsGAPDH). The experiment can be described thus: SPR competition with immobilized 3AESA; competition of 4AzSA photoaffinity crosslinking. The class given is binding.

T1 sequence (P04406 whole entry): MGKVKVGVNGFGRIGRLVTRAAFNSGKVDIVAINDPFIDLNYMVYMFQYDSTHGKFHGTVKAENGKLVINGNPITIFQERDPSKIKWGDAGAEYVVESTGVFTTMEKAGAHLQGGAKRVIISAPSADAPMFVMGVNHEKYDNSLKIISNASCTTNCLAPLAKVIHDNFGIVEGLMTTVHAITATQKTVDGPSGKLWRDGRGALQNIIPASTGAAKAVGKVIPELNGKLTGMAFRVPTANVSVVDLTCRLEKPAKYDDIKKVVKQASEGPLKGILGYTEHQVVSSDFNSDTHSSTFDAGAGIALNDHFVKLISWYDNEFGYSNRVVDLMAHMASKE

For `[N-]=[N+]=Nc1ccc(C(=O)O)c(O)c1` [4AzSA, 4-azido salicylic acid], the “UV photoaffinity crosslinking (0.05 mM) with anti-SA immunoblot” value in experiment [1] is “Recombinant HsGAPDH crosslinked with 4AzSA, and this crosslinking was suppressed in the presence of increasing levels of SA”.
With `O=C(O)c1ccccc1O` [SA, Salicylic acid], the “SPR competition with immobilized 3AESA; competition of 4AzSA photoaffinity cross” value in experiment [2] was “suppression of this interaction required millimolar concentrations of SA (Fig 2B)”.
